From ChEMBL document CHEMBL1146017, “Dipeptide vinyl sultams: synthesis via the Wittig-Horner reaction and activity against papain, falcipain-2 and Plasmodium falciparum” (Bioorg Med Chem Lett, 2006)
Calls of active or inactive are those of the source. The calls are words filed in the database; no cut-off is given here.

Molecular target: T1, Papain (Carica papaya) (UniProt P00784)
T1 sequence (whole entry): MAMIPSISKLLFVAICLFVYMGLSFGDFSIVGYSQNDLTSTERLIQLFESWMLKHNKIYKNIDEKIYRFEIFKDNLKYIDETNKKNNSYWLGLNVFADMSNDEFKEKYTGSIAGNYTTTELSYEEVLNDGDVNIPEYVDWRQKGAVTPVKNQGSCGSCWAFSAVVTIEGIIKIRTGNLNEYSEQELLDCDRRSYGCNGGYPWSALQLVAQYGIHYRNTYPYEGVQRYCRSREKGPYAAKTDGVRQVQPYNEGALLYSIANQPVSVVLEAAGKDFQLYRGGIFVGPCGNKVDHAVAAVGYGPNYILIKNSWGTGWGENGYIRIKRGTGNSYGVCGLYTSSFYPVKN
Experiment: Inhibition of papain at 50 uM

In the case of CC(C)C[C@H](NC(=O)N1CCOCC1)C(=O)N[C@H](/C=C1/CCCN(Cc2ccccc2)S1(=O)=O)Cc1ccccc1, the inhibition is reported as “inactive”.
CC(C)C[C@H](NC(=O)N1CCOCC1)C(=O)N[C@H](/C=C1\CCCN(Cc2ccccc2)S1(=O)=O)Cc1ccccc1 was tested, and the inhibition was “inactive”.
For CC(C)(C)OC(=O)N[C@H](/C=C1\CCCN(Cc2ccccc2)S1(=O)=O)Cc1ccccc1, the inhibition was “inactive”.

Molecular target: T2, Falcipain 2 (Plasmodium falciparum, UniProt Q9N6S8)
T2 sequence (Q9N6S8 whole entry): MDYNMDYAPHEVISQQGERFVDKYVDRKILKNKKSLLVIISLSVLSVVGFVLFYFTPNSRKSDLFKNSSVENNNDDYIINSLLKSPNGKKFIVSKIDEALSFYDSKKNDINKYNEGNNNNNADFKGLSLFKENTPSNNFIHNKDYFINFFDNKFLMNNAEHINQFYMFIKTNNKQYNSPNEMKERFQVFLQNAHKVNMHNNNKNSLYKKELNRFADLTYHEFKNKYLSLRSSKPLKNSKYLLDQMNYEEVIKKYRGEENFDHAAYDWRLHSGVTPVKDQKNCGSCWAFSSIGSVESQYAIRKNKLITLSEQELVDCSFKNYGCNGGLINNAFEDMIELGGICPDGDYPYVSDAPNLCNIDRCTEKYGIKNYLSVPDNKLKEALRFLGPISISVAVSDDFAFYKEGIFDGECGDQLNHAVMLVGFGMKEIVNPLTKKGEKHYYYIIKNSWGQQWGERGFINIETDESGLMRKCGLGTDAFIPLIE
Experiment: Inhibition of recombinant falcipain2

Point of comparison: CC(C)C[C@H](NC(=O)N1CCOCC1)C(=O)N[C@H](/C=C1\CCCN(Cc2ccccc2)S1(=O)=O)Cc1ccccc1, IC50 13.7 µM. Against it:
- CC(C)C[C@H](NC(=O)N1CCOCC1)C(=O)N[C@H](/C=C1/CCCN(Cc2ccccc2)S1(=O)=O)Cc1ccccc1 — 1.7-fold higher, 23.6 µM
- CC(=O)N[C@@H](Cc1ccccc1)C(=O)N[C@H](/C=C1\CCCN(c2ccccc2)S1(=O)=O)Cc1ccccc1 — 1.9-fold higher, 26.5 µM
- CC(C)C[C@H](NC(=O)N1CCOCC1)C(=O)N[C@H](/C=C1\CCCN(c2ccccc2)S1(=O)=O)Cc1ccccc1 — 2.3-fold higher, 31.4 µM
- CC(C)C[C@H](NC(=O)N1CCOCC1)C(=O)N[C@H](/C=C1\CCN(Cc2ccccc2)S1(=O)=O)Cc1ccccc1 — 3.5-fold higher, 48.4 µM

Molecular target: T1, Papain (Carica papaya)
Experiment: Inhibition of papain upto 50 uM after 30 min

In the case of CC(=O)N[C@@H](Cc1ccccc1)C(=O)N[C@H](/C=C1\CCCN(c2ccccc2)S1(=O)=O)Cc1ccccc1, the inhibition is reported as “inactive”.

System: Plasmodium falciparum
Experiment: Inhibition of Plasmodium falciparum W2
Type: functional, organism-based

Point of comparison: CC(C)C[C@H](NC(=O)N1CCOCC1)C(=O)N[C@H](/C=C1\CCCN(Cc2ccccc2)S1(=O)=O)Cc1ccccc1, IC50 7.8 µM. Against it:
- CC(C)C[C@H](NC(=O)N1CCOCC1)C(=O)N[C@H](/C=C1/CCCN(Cc2ccccc2)S1(=O)=O)Cc1ccccc1 — higher, > 10 µM
- CC(=O)N[C@@H](Cc1ccccc1)C(=O)N[C@H](/C=C1\CCCN(c2ccccc2)S1(=O)=O)Cc1ccccc1 — higher, > 10 µM
- CC(C)C[C@H](NC(=O)N1CCOCC1)C(=O)N[C@H](/C=C1\CCCN(c2ccccc2)S1(=O)=O)Cc1ccccc1 — higher, > 10 µM
- CC(C)C[C@H](NC(=O)N1CCOCC1)C(=O)N[C@H](/C=C1\CCN(Cc2ccccc2)S1(=O)=O)Cc1ccccc1 — higher, > 10 µM
